{
  "source": "paper PMC10132233",
  "about": "(Journal of Enzyme Inhibition and Medicinal Chemistry, 2023)",
  "key": {"[1]": {"biological_target": "T1, cyclin-dependent kinase 2 (CDK2) (Homo sapiens, UniProt P24941)", "T1 construct": "purchased Reaction Biology Co. (Malvern, PA)", "test": "Small kinase panel, CDK2", "assay_type": "biochemical", "conditions": "read-out: % kinase inhibition (relative to DMSO control) CDK2", "method": "(§1) Enzyme inhibitory assays were carried out as described in our previous reports in the literature. […] The HotSpot assay platform includes specific kinase/substrate pairs and required cofactors. The base reaction buffer consisted of 20 mM Hepes (pH 7.5), 10 mM MgCl2, 1 mM EGTA, 0.02% Brij35, 0.02 mg/mL BSA, 0.1 mM Na3VO4, 2 mM DTT, and 1% DMSO. The tested compounds were dissolved in 100% DMSO to a specific concentration, and serial dilution was conducted. The reaction mixture containing the tested compound and 33P-ATP was incubated at room temperature for 2 h, and radioactivity was detected using the filter-binding method."}, "[2]": {"biological_target": "T2, vascular endothelial growth factor receptor 2 (VEGFR2) (Homo sapiens, UniProt P35968)", "T2 construct": "purchased Reaction Biology Co. (Malvern, PA)", "T2 sequence (P35968 20-1356)": "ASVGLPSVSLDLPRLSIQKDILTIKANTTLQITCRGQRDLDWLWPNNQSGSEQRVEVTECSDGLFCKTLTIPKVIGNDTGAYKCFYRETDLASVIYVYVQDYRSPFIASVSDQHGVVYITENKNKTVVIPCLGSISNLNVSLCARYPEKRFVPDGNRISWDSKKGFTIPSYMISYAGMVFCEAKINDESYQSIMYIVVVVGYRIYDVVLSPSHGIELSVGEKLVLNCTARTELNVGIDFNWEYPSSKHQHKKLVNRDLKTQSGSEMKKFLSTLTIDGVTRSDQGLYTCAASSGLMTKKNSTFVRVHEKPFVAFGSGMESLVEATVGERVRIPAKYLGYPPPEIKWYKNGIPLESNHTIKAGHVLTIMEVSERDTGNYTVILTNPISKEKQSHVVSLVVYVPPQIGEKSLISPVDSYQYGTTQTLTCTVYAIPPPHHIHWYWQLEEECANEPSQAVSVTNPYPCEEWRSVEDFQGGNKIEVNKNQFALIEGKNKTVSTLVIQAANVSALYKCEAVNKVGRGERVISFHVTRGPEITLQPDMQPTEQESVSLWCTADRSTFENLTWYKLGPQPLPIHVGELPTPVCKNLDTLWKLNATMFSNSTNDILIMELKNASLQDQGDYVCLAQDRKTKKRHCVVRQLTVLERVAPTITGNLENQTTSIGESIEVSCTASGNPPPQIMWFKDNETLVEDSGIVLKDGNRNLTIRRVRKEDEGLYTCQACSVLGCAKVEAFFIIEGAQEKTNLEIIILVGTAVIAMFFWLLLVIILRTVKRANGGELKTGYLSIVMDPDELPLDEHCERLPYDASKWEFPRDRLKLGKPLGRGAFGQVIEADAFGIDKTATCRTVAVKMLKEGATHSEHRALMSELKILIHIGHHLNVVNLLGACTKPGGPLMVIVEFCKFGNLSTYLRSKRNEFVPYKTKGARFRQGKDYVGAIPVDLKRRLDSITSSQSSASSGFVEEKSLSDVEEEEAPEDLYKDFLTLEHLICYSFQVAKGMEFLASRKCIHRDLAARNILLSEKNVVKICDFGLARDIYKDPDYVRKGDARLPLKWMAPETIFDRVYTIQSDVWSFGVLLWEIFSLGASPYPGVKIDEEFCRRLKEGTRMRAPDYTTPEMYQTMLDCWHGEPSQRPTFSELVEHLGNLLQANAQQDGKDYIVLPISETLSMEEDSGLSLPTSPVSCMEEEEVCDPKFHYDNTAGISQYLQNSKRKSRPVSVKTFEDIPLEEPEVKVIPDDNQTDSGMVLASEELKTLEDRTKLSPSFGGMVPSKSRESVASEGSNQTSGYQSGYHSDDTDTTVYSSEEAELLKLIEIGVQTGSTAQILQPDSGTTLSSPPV", "test": "Small kinase panel, VEGFR2", "assay_type": "biochemical", "conditions": "read-out: % kinase inhibition (relative to DMSO control) VEGFR2", "method": "as §1"}, "[3]": {"biological_target": "T3, p38α mitogen-activated protein kinase (MAPK14) (Homo sapiens, UniProt Q16539)", "T3 construct": "purchased Reaction Biology Co. (Malvern, PA)", "T3 sequence (Q16539 whole entry)": "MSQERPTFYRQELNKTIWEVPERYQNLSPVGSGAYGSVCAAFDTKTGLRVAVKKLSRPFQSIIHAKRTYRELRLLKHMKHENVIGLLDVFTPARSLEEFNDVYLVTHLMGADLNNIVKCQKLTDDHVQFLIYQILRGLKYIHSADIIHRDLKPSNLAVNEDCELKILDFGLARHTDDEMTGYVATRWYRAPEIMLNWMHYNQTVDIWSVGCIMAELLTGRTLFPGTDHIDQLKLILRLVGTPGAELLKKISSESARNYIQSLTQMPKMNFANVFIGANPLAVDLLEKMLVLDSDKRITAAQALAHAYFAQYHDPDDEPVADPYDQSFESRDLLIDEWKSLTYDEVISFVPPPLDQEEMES", "test": "Small kinase panel, MAPK14", "assay_type": "biochemical", "conditions": "read-out: % kinase inhibition (relative to DMSO control) MAPK14", "method": "as §1"}, "[4]": {"system": "PC3 prostate carcinoma cell line", "test": "MTT cytotoxicity assay, PC3", "assay_type": "cell-based", "conditions": "Homo sapiens, 24 h", "text": "(§2) Accordingly, we aimed to investigate the cytotoxic potential of this new series against prostate carcinoma cell lines. […] The potent nanomolar cell-based activity of this series of compounds over the tested prostate carcinoma cell line could be attributed to other possible targets in addition to EGFR and HER2 receptors. The presence of the 2-nitroimidazole moiety in the chemical structure of compounds 9a–h could develop possible covalent bonds between the nitroimidazole moiety and some cellular proteins.\n(§3) Prostate cancer cell lines (PC3 and 22RV1) of American Type Culture Collection (ATCC) were obtained from Korean Cell Center (KCL). PC3 and 22RV1 cell lines were cultured in Roswell Park Memorial Institute Medium (RPMI) 1640 and Dulbecco’s modified Eagle’s medium (DMEM) (GenDepot, Barker, TX) supplemented with 1% penicillin–streptomycin and 10% foetal bovine serum (FBS). The cells were maintained at 37 °C in a 5% CO2 with a 95% humid atmosphere.\n(§4) To further analyse the intracellular cytotoxicity effect of the as-synthesised compounds, MTT assay was performed. Moreover, the experiments were divided into subcategories. In each group, cancer cells were first seeded in 96-well plates (4 × 10^4 cells per well) and then incubated for 24 h at 37 °C in a 5% CO2-containing atmosphere. Subsequently, the medium from the culture plate was removed, and 100 µL of RPMI media containing different concentrations of compounds (0.01, 0.005, 0.0025, 0.00125, and 0.000625 µM) were then added into the cell lines in each well and incubated for 24 h in a 5% CO2 humidified incubator at 37 °C. Afterwards, MTT solution (150 μL, 1 mg/mL) was added to each well, replacing the media-containing compounds. After 4 h of incubation, the MTT reagent was removed, and 200 μL of DMSO was then added to dissolve the formazan crystals, and colour intensity was measured at a wavelength of 540 nm using a BioTek Synergy H1 instrument (BioTek, Winooski, VT). IC50 was calculated according to the equation of Boltzmann sigmoidal concentration–response curve using Graph Pad Prism 5 (La Jolla, CA)."}, "[5]": {"system": "22RV1 prostate carcinoma cell line", "test": "MTT cytotoxicity assay, 22RV1", "assay_type": "cell-based", "conditions": "Homo sapiens, 24 h", "text": "as §2, §3, §4"}, "22RV1 cells": {"system": "22RV1 cells", "test": "Apoptosis analysis (Annexin V-PE/DAPI), 22RV1", "assay_type": "cell-based, human", "conditions": "22RV1, compound at its IC50, 24 h", "method": "The control PC3 and 22RV1 cells and compound-treated cells were stained with PE-Annexin V and DAPI for a more appropriate cell death examination, and the cellular fluorescence analysis was then performed using ADAMII LS (Figures 4–6). Apoptosis is a type of programmed cell death that can be detected using Annexin V and the DAPI reagent. On plasma membranes, annexin V binds to […] and DAPI can bind to DNA in cells. The dot plot and image data detect early and late apoptotic cells using these two fluorophores. […] Moreover, compound 9f-treated PC3 cells went through early apoptosis (6.27%), and late apoptosis phase (16.94%) (Figures 4(D) and 6). Likewise, the fluorescence images for 22RV1 (Figure 5) and PC3 (Figure 6) cells complement the dot plot data, as higher fluorescence of DAPI and RF images clearly distinguished compound 9f-treated cells from control. […]\nAnnexin V conjugated to fluorochromes (PE) retains its high affinity for phosphatidylserine (PS), making it a sensitive probe for flow cytometric analysis of apoptotic cells. […] When apoptosis is measured over time, cells can often be tracked from PE Annexin V and DAPI negative (viable, or no measurable apoptosis), to PE Annexin V positive and DAPI negative (early apoptosis), and finally to PE Annexin V and DAPI positive (end stage apoptosis and death). […]"}},
  "note": "pIC50: −log10 of the molar value.",
  "data": [
    {"smiles": "COc1cc2ncnc(Nc3ccc(Oc4cccc(C(F)(F)F)c4)c(Cl)c3)c2cc1OCCCCn1ccnc1[N+](=O)[O-]", "note": "[Compound 9f, N-(3-Chloro-4-(3-(trifluoromethyl)phenoxy)phenyl)-7-methoxy-6-(4-(2-nitro-1H-imidazol-1-yl)butoxy)quinazolin-4-amine]", "values": [
      {"measurement": "inhibition at 10 µM", "setting": "[1]", "result": 0.8, "unit": "%"},
      {"measurement": "inhibition at 10 µM", "setting": "[2]", "result": -4.46, "unit": "%"},
      {"measurement": "inhibition at 10 µM", "setting": "[3]", "result": 24.3, "unit": "%"},
      {"measurement": "pIC50", "setting": "[4]", "result": 9.00},
      {"measurement": "pIC50", "setting": "[5]", "result": 8.57},
      {"measurement": "early apoptosis (E.A)", "setting": "22RV1 cells", "result": 13.20, "unit": "%"},
      {"measurement": "late apoptosis (L.A)", "setting": "22RV1 cells", "result": 15.38, "unit": "%"}
    ]}
  ]
}
